Measured values reported in ChEMBL document CHEMBL5154781, “Discovery of Novel Sertraline Derivatives as Potent Anti-Cryptococcus Agents” (J Med Chem, 2022).
In brackets after ≈: the same amount, converted by molar mass. Values belong to the compound of their own block, whether it stands above or below them. Activity calls are given as the source filed them. No cut-off for these calls is given here.

Tests used:
[1] = tested on: Cryptococcus neoformans; assay: microbe, parasite or virus in culture; format: functional, organism-based; conditions: H99, 72 h
Description: Anti-cryptococcal activity against Cryptococcus neoformans H99 assessed as inhibition of fungal growth incubated for 72 hrs by microdilution method

[2] = Metabolic stability in mouse liver microsomes assessed as clearance; format: ADME, Microsome
[3] = Metabolic stability in mouse liver microsomes assessed as half life; format: ADME, Microsome
[4] = microbe, parasite or virus in culture; format: functional; conditions: Cryptococcus; time 72 hrs
Description: Anti-cryptococcal activity against Cryptococcus assessed as inhibition of fungal growth incubated for 72 hrs by microdilution method

[5] = tested on: Cryptococcus neoformans; assay: Anti-cryptococcal activity against Cryptococcus neoformans H99 assessed as cell membrane damage at 0.5 to 4 ug/ml incubated for 8 hrs by transmission electron microscopy; format: functional, organism-based; conditions: dose 0.5-4 µg/ml, DDE = dose-dependent effect
[6] = tested on: [Candida] auris; assay: microbe, parasite or virus in culture; format: functional, organism-based; conditions: Candidozyma auris, 0029, 48 h
Description: Antifungal activity against Candida auris 0029 assessed as inhibition of fungal growth incubated for 48 hrs by microdilution method

[7] = tested on: Cryptococcus neoformans; assay: Inhibition of Cryptococcus neoformans H99 delta5,6-desaturase assessed as upregulation of ERG3 gene expression at 2 ug/ml incubated for 24 hrs by RT-PCR analysis; conditions: dose 2.0 µg/ml
[8] = tested on: Cryptococcus neoformans; assay: Inhibition of Cryptococcus neoformans H99 delta5,6-desaturase assessed as upregulation of ERG1 gene expression at 2 ug/ml incubated for 24 hrs by RT-PCR analysis; conditions: dose 2.0 µg/ml
[9] = tested on: Cryptococcus neoformans; assay: Inhibition of Cryptococcus neoformans H99 delta5,6-desaturase assessed as change in sterol content at 2 ug/ml incubated for 24 hrs by GC-MS analysis; conditions: dose 2.0 µg/ml
[10] = tested on: Cryptococcus; assay: Fungicidal activity against Cryptococcus assessed as ratio of MFC to MIC; format: functional
[11] = tested on: Cryptococcus neoformans; assay: Inhibition of Cryptococcus neoformans H99 delta5,6-desaturase assessed as upregulation of ERG4 gene expression at 2 ug/ml incubated for 24 hrs by RT-PCR analysis; conditions: dose 2.0 µg/ml
[12] = tested on: Cryptococcus neoformans; assay: Inhibition of biofilm formation in Cryptococcus neoformans H99 at 0.5 to 8 ug/ml incubated for 24 hrs by XTT reduction assay; format: functional, organism-based; conditions: dose 0.5-8 µg/ml, DDE = dose-dependent effect
[13] = tested on: Cryptococcus neoformans; assay: Inhibition of Cryptococcus neoformans H99 delta5,6-desaturase assessed as upregulation of ERG5 gene expression at 2 ug/ml incubated for 24 hrs by RT-PCR analysis; conditions: dose 2.0 µg/ml
[14] = […] in ICR mouse model of Cryptococcal meningitis infected with Cryptococcus neoformans H99 assessed as median survival time at 15 mg/kg, IG administered daily (reference value: 11 day); format: organism-based; conditions: in vivo, po, 264 h
[15] = tested on: Candida albicans; assay: microbe, parasite or virus in culture; format: functional, organism-based; conditions: Candida albicans, 0304103, 48 h
Description: Antifungal activity against Candida albicans 0304103 assessed as inhibition of fungal growth incubated for 48 hrs by microdilution method

[16] = Cytotoxicity against HUVEC cells; conditions: human
[17] = tested on: Candida albicans; assay: Upregulation of ERG11 in Candida albicans SC3514 at 0.5 ug/ml incubated for 24 hrs by RT-PCR analysis; format: functional; conditions: dose 0.5 µg/ml
[18] = tested on: Cryptococcus neoformans; assay: Inhibition of Cryptococcus neoformans H99 delta5,6-desaturase assessed as blockade of ergosterol biosynthesis pretreated at 3 ug/ml followed by addition of ERG enzymes incubated for 24 hrs in presence of NADPH by GC-MS analysis; conditions: dose 3.0 µg/ml
[19] = tested on: Candida albicans; assay: Antifungal activity against Candida albicans SC3514 assessed as decrease in ergosterol content at 2 ug/ml incubated for 24 hrs in presence of NADPH by GC-MS analysis; format: functional, organism-based; conditions: dose 2.0 µg/ml
[20] = tested on: Candida albicans; assay: Upregulation of ERG3 in Candida albicans SC3514 at 0.5 ug/ml incubated for 24 hrs by RT-PCR analysis; format: functional; conditions: dose 0.5 µg/ml
[21] = tested on: Cryptococcus neoformans; assay: Fungicidal activity against Cryptococcus neoformans H99 assessed as fungal growth inhibition incubated upto 72 hrs by time-fungicidal curve assay; format: functional
[22] = tested on: Aspergillus fumigatus; assay: microbe, parasite or virus in culture; format: functional, organism-based; conditions: 023-2, 48 h
Description: Antifungal activity against Aspergillus fumigatus 023-2 assessed as inhibition of fungal growth incubated for 48 hrs by microdilution method

[23] = tested on: Pichia kudriavzevii; assay: microbe, parasite or virus in culture; format: functional, organism-based; conditions: Pichia kudriavzevii, 10153, 48 h
Description: Antifungal activity against Candida krusei 10153 assessed as inhibition of fungal growth incubated for 48 hrs by microdilution method

[24] = tested on: Cryptococcus neoformans; assay: Inhibition of Cryptococcus neoformans H99 delta5,6-desaturase assessed as blockade of ergosterol biosynthesis at 0.5 ug/ml pretreated with ERG enzymes followed by compound addition incubated for 24 hrs in presence of NADPH by GC-MS analysis; conditions: dose 0.5 µg/ml
[25] = tested on: Candida albicans; assay: Antifungal activity against Candida albicans SC3514 assessed as low level of ergosta-7,22-dien-3-ol at 2 ug/ml incubated for 24 hrs in presence of NADPH by GC-MS analysis; format: functional, organism-based; conditions: dose 2.0 µg/ml
[26] = tested on: Cryptococcus neoformans; assay: Inhibition of Cryptococcus neoformans H99 delta5,6-desaturase assessed as upregulation of ERG3 under stress condition at 0.25 to 1 ug/ml incubated for 24 hrs by RT-PCR analysis; conditions: dose 0.25-1 µg/ml, DDE = dose-dependent effect
[27] = tested on: Cryptococcus neoformans; assay: Anti-cryptococcal activity against Cryptococcus neoformans H99 assessed as efflux of cell contents at 4 ug/ml incubated for 8 hrs by transmission electron microscopy; format: functional, organism-based; conditions: dose 4.0 µg/ml
[28] = tested on: Nakaseomyces glabratus; assay: microbe, parasite or virus in culture; format: functional, organism-based; conditions: Nakaseomyces glabratus, 9025, 48 h
Description: Antifungal activity against Candida glabrata 9025 assessed as inhibition of fungal growth incubated for 48 hrs by microdilution method

[29] = tested on: Aspergillus fumigatus; assay: microbe, parasite or virus in culture; format: functional, organism-based; conditions: Aspergillus fumigatus, 7544, 48 h
Description: Antifungal activity against Aspergillus fumigatus 7544 assessed as inhibition of fungal growth incubated for 48 hrs by microdilution method

[30] = tested on: Cryptococcus neoformans; assay: Anti-cryptococcal activity against Cryptococcus neoformans H99 assessed as inhibition of fungal growth at 1 ug/ml measured after 72 hrs by time-growth curve assay; format: functional, organism-based; conditions: dose 1.0 µg/ml
[31] = tested on: Cryptococcus neoformans; assay: Inhibition of Cryptococcus neoformans H99 delta5,6-desaturase assessed as increase in ergosta-7,22-dien-3-ol levels at 0.125 to 2 ug/ml incubated for 24 hrs by GC-MS analysis; conditions: dose 0.125-2 µg/ml, DDE = dose-dependent effect
[32] = tested on: Cryptococcus neoformans; assay: Anti-cryptococcal activity against Cryptococcus neoformans H99 assessed as cell membrane damage at 4 ug/ml incubated for 8 hrs by transmission electron microscopy; format: functional, organism-based; conditions: dose 4.0 µg/ml
[33] = tested on: Cryptococcus neoformans; assay: Inhibition of Cryptococcus neoformans H99 delta5,6-desaturase assessed as upregulation of ERG11 gene expression at 2 ug/ml incubated for 24 hrs by RT-PCR analysis; conditions: dose 2.0 µg/ml
[34] = tested on: Cryptococcus neoformans; assay: Inhibition of Cryptococcus neoformans H99 delta5,6-desaturase assessed as upregulation of ERG24 gene expression at 2 ug/ml incubated for 24 hrs by RT-PCR analysis; conditions: dose 2.0 µg/ml
[35] = tested on: Cryptococcus neoformans; assay: Inhibition of Cryptococcus neoformans H99 delta5,6-desaturase assessed as decrease in ergosterol level at 1 ug/ml incubated for 24 hrs by GC-MS analysis; conditions: dose 1.0 µg/ml
[36] = tested on: Candida albicans; assay: microbe, parasite or virus in culture; format: functional, organism-based; conditions: Candida albicans, 904, 48 h
Description: Antifungal activity against Candida albicans 904 assessed as inhibition of fungal growth incubated for 48 hrs by microdilution method

[37] = tested on: [Candida] auris; assay: Antifungal activity against Candida auris 15448 assessed as inhibition of fungal growth incubated for 48 hrs by microdilution method; format: functional, organism-based; conditions: Candidozyma auris, 15448, 48 h
[38] = tested on: Candida tropicalis; assay: microbe, parasite or virus in culture; format: functional, organism-based; conditions: Candida tropicalis, 10186, 48 h
Description: Antifungal activity against Candida tropicalis 10186 assessed as inhibition of fungal growth incubated for 48 hrs by microdilution method

[39] = tested on: Cryptococcus neoformans; assay: Anti-cryptococcal activity against Cryptococcus neoformans H99 assessed as inhibition of fungal growth at 8 ug/ml measured after 72 hrs by time-growth curve assay; format: functional; set-up: scale not given: the % may be the effect or the level left; conditions: dose 8 µg/ml
[40] = tested on: Cryptococcus neoformans; assay: Inhibition of biofilm formation in Cryptococcus neoformans H99 at 2 ug/ml incubated for 24 hrs by XTT reduction assay; format: functional
[41] = tested on: Cryptococcus neoformans; assay: Inhibition of Cryptococcus neoformans H99 delta5,6-desaturase assessed as upregulation of ERG11 at 0.25 to 1 ug/ml incubated for 24 hrs by RT-PCR analysis; conditions: dose 0.25-1 µg/ml, DDE = dose-dependent effect
[42] = tested on: Candida albicans; assay: microbe, parasite or virus in culture; format: functional, organism-based; conditions: SC5314, 48 h
Description: Antifungal activity against Candida albicans SC5314 assessed as inhibition of fungal growth incubated for 48 hrs by microdilution method

[43] = tested on: [Candida] auris; assay: microbe, parasite or virus in culture; format: functional, organism-based; conditions: Candidozyma auris, 0030, 48 h
Description: Antifungal activity against Candida auris 0030 assessed as inhibition of fungal growth incubated for 48 hrs by microdilution method

[44] = tested on: Nakaseomyces glabratus; assay: microbe, parasite or virus in culture; format: functional, organism-based; conditions: Nakaseomyces glabratus, 9073, 48 h
Description: Antifungal activity against Candida glabrata 9073 assessed as inhibition of fungal growth incubated for 48 hrs by microdilution method

[45] = tested on: Cryptococcus neoformans; assay: Inhibition of Cryptococcus neoformans H99 delta5,6-desaturase assessed as upregulation of ERG2 gene expression at 2 ug/ml incubated for 24 hrs by RT-PCR analysis; conditions: dose 2.0 µg/ml

Compound: Nc1nc(=O)[nH]cc1F [FLUCYTOSINE]
IC50 [1]: 2 µg/mL (≈ 15.5 µM)

Compound: Cc1ccc(C2CCC(NCCC3CCCCC3)c3ccsc32)cc1C.Cl (stereo not drawn)
IC50 [1]: 32 µg/mL

Compound: Cl.Clc1ccc(C2CCC(NCc3ncccn3)c3ccsc32)cc1Cl (stereo not drawn)
IC50 [1]: 32 µg/mL

Compound: Cl.Clc1ccc(C2CCC(NCC3CCCCC3)c3ccsc32)cc1Cl (stereo not drawn)
IC50 [1]: 2 µg/mL

Compound: Cl.Clc1ccc(C2CCC(NC3CC3)c3ccsc32)cc1Cl (stereo not drawn)
IC50 [1]: 16 µg/mL

Compound: CC(C)(C)CNC1CCC(c2ccc(Cl)c(Cl)c2)c2sccc21.Cl (stereo not drawn)
IC50 [1]: 4 µg/mL

Compound: Cl.Clc1ccc(C2CCC(NCCCC3CCCCC3)c3ccsc32)cc1Cl (stereo not drawn)
IC50 [1]: 2 µg/mL

Compound: Cl.Clc1ccc(C2CCC(NCCC3CCOCC3)c3ccsc32)cc1Cl (stereo not drawn)
MIC50 [4]: 0.62 µg/mL | Activity [5]: Dde | IC50 [6]: 16 µg/mL | Activity [7]: Active | Activity [8]: Active | Activity [9]: Active | Ratio [10]: 7.47 | Activity [11]: Active | IC50 [1]: 0.5 µg/mL | inhibition [12]: Dde | CLH [2]: 136 µL/min/mg | Activity [13]: Active | MST [14]: 14 days | IC50 [15]: 32 µg/mL | IC50 [16]: 20.2 µM | Activity [17]: Active | Activity [18]: Active | Activity [19]: Active | Activity [20]: Active | MFC [21]: 8 µg/mL | IC50 [22]: 32 µg/mL | IC50 [23]: 8 µg/mL | Activity [24]: Active | Activity [25]: Active | Activity [26]: Dde | Activity [27]: Active | IC50 [28]: 8 µg/mL | IC50 [29]: 32 µg/mL | Activity [30]: Active | Activity [31]: Dde | Activity [32]: Active | Activity [33]: Active | Activity [34]: Active | Activity [35]: Active | IC50 [36]: 32 µg/mL | IC50 [37]: 8 µg/mL | IC50 [38]: 32 µg/mL | Activity [39]: 100% | inhibition at 2 µg/mL [40]: 50% | Activity [41]: Dde | IC50 [42]: 32 µg/mL | IC50 [43]: 8 µg/mL | IC50 [44]: 32 µg/mL | Activity [45]: Active | half-life [3]: 40.1 min

Results, then the compound that gave them:

IC50 [1]: 32 µg/mL
Compound: Cl.Clc1ccc(C2CCC(NCc3ccccc3)c3ccsc32)cc1Cl (stereo not drawn)

CLH [2]: 271 µL/min/mg | half-life [3]: 20.1 min
Compound: O=C(c1ccc(F)cc1)C1CCN(CCn2c(=O)[nH]c3ccccc3c2=O)CC1 [KETANSERIN]

IC50 [1]: 2 µg/mL
Compound: CN1CCC(CCNC2CCC(c3ccc(Cl)c(Cl)c3)c3sccc32)CC1.Cl (stereo not drawn)

IC50 [1]: 16 µg/mL
Compound: Cl.Clc1ccc(C2CCC(NCc3ccncc3)c3ccsc32)cc1Cl (stereo not drawn)

IC50 [1]: 8 µg/mL
Compound: Cl.O=C(CNC1CCC(c2ccc(Cl)c(Cl)c2)c2sccc21)N1CCCCC1 (stereo not drawn)
